Here are results for 20 compounds from patent US10988449B2, “Isoxazole derivatives as nuclear receptor agonists and uses thereof” (IL DONG PHARMACEUTICAL CO., LTD., priority 2017, dated 2021).

A word on the EC50: it is the concentration giving half of the maximal effect. The term Emax denotes the greatest response seen or fitted, relative to the assay's reference. As usually defined, the AUC is concentration integrated over time.

One data set concerns the target T1, human FXR (Homo sapiens, UniProt Q96RI1).
T1 construct: expressed in transfected cells
T1 sequence (Q96RI1 1-486): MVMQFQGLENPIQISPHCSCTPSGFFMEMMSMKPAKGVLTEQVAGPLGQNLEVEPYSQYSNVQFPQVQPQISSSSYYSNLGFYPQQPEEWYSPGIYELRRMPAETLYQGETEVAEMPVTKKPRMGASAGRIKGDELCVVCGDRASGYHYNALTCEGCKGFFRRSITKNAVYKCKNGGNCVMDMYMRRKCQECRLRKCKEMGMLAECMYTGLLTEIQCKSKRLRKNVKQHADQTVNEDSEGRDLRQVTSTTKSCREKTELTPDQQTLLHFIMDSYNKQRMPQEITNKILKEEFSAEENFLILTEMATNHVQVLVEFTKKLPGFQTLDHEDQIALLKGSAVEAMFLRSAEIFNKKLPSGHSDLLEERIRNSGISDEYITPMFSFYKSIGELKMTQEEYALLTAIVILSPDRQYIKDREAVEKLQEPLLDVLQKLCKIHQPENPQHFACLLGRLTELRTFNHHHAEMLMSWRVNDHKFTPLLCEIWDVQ
Briefly: FXR reporter assay (cellular FXR activities). The settings on record: for EC50: FXR reporter cells, 24 hours incubation, luciferase, read-out: Reporter Cell EC50; for Emax: read-out: Emax (%) (GW4064 Emax = 100%). The data set is classed as cell-based. Put shortly: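 EC50 derived from luciferase read-out after 24 h (37 °C, 5% CO2) treatment of human-FXR-expressing reporter cells with serially diluted compound.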
(In a reporter assay the amount or activity of a reporter protein is the signal.)

Another data set in a line: Mouse pharmacokinetics. It is filed as in vivo. More on the design: concentration or dose not given beside the values. The settings on record: Balb/c male mice, blood samples 15 to 1140 min, LC-MS/MS. On the procedure: To evaluate the pharmacokinetics test, the invented 18 compounds of examples were determined as follows. Blood samples are collected at 15, 30, 60, 120, 240, 480, 1140 min. Quantification is by using a LC-MS/MS method specific to the selected compound. Pharmacokinetics parameters are calculated using WinNonLinnon compartmental analysis software.

For data set [1] the following is noted: in vivo; cited from earlier work.
For data set [2], the system named is hepatic stellate cells (HSC). As to conditions: cultured HSCs; cited from earlier work.
For data set [3] the following is noted: multiple rodent models; cited from earlier work.
The conditions of data set [4]: db/db, ob/ob and KK-A(y)mice; cited from earlier work.

Read-outs that look alike come from different tables or passages of the source.

Consider `CNc1cc(C#Cc2ccc(OCc3c(-c4c(Cl)cccc4Cl)noc3C3CC3)cc2Cl)cc(C(=O)O)c1` [Compound I-52, 3-((2-chloro-4-((5-cyclopropyl-3-(2,6-dichlorophenyl)isoxazol-4-yl)methoxy)phenyl)ethynyl)-5-(methylamino)benzoic acid], for which, at human FXR, the EC50 was 20 to 60 nM and the maximal response (Emax) is over 100%. The AUC in the data set “Mouse pharmacokinetics” (mouse, read-out: AUC) was 3310 ng·h/mL.
The matching figures for `O=C(O)c1ccc(Cl)c(C#Cc2ccc(OCc3c(-c4c(Cl)cccc4Cl)noc3C3CC3)cc2Cl)c1` [Compound I-28, 4-chloro-3-((2-chloro-4-((5-cyclopropyl-3-(2,6-dichlorophenyl)isoxazol-4-yl)methoxy)phenyl)ethynyl)benzoic acid]: 60 to 200 nM, 91% and 1780 ng·h/mL.
The matching figures for `CC(C)Nc1cc(C#Cc2ccc(OCc3c(-c4c(Cl)cccc4Cl)noc3C3CC3)cc2Cl)cc(C(=O)O)c1` [Compound I-54, 3-((2-chloro-4-((5-cyclopropyl-3-(2,6-dichlorophenyl)isoxazol-4-yl)methoxy)phenyl)ethynyl)-5-(isopropylamino)benzoic acid]: at most 20 nM, over 100% and 934 ng·h/mL.
The matching figures for `O=C(O)c1cccc(C#Cc2ccc(OCc3c(-c4c(Cl)cccc4Cl)noc3C3CC3)cc2)c1` [Compound I-2, 3-((4-((5-cyclopropyl-3-(2,6-dichlorophenyl)isoxazol-4-yl)methoxy)phenyl)ethynyl)benzoic acid]: over 1000 nM, over 100% and 277 ng·h/mL.
On to `CC[C@H]1[C@@H](O)[C@@H]2[C@H](CC[C@]3(C)[C@@H]([C@H](C)CCC(=O)O)CC[C@@H]23)[C@@]2(C)CC[C@@H](O)C[C@@H]12` [Compound 6EtCDCA, 6-ethyl-chenodeoxycholic acid], for which, in data set [1], the “impairment of bile flow” value is “fully reverse the impairment of bile flow” and the “liver cell injury caused by the cytotoxic lithocholic acid” value is reported as “protect the hepatocytes against liver cell injury”. Moreover, in data set [2], the “expression of fibrotic markers such as α-smooth muscle actin and α1(I) collagen” value was “decreased expression of fibrotic markers”. Further, the hepatic fibrosis result in data set [3] is listed as “promote resolution of hepatic fibrosis”.
With `Nc1cc(C#Cc2ccc(OCc3c(-c4c(Cl)cccc4Cl)noc3C3CC3)cc2Cl)cc(C(=O)O)c1` [Compound I-25, 3-amino-5-((2-chloro-4-((5-cyclopropyl-3-(2,6-dichlorophenyl)isoxazol-4-yl)methoxy)phenyl)ethynyl)benzoic acid], on human FXR, the concentration for a half-maximal effect (EC50) was 60 to 200 nM and the Emax came to 97%. In addition, the AUC in the data set “Mouse pharmacokinetics” (mouse, read-out: AUC) worked out at 722 ng·h/mL.
Consider `O=C(O)c1cccc(C#Cc2ccc(OCc3c(-c4c(Cl)cccc4Cl)noc3C3CC3)cc2Cl)c1` [Compound I-15, 3-((2-chloro-4-((5-cyclopropyl-3-(2,6-dichlorophenyl)isoxazol-4-yl)methoxy)phenyl)ethynyl)benzoic acid], for which, at human FXR, the half-maximal effective concentration (EC50) fell in the range of 60 to 200 nM and the Emax was 82%. Besides, the AUC in “Mouse pharmacokinetics” (mouse, read-out: AUC) is 521 ng·h/mL.
On the same counts, the results for `CC(C)(C)OC(=O)Nc1cc(C#Cc2ccc(OCc3c(-c4c(Cl)cccc4Cl)noc3C3CC3)cc2Cl)cc(C(=O)O)c1` [Compound I-77, 3-((tert-butoxycarbonyl)amino)-5-((2-chloro-4-((5-cyclopropyl-3-(2,6-dichlorophenyl)isoxazol-4-yl)methoxy)phenyl)ethynyl)benzoic acid] are at most 20 nM, 100% and 1010 ng·h/mL.
On to `CC(C)c1nc2cc(C#Cc3ccc(OCc4c(-c5c(Cl)cccc5Cl)noc4C4CC4)cc3Cl)cc(C(=O)O)c2o1` [Compound I-106, 5-((2-chloro-4-((5-cyclopropyl-3-(2,6-dichlorophenyl)isoxazol-4-yl)methoxy)phenyl)ethynyl)-2-isopropylbenzo[d]oxazole-7-carboxylic acid], for which, on human FXR, the concentration giving a half-maximal response (EC50) was in the range of 20 to 60 nM and the Emax was 96%. In addition, the AUC in the data set “Mouse pharmacokinetics” (mouse, read-out: AUC) came out at 2250 ng·h/mL.
On the same counts, the results for `O=C(O)c1ccc(F)c(C#Cc2ccc(OCc3c(-c4c(Cl)cccc4Cl)noc3C3CC3)cc2Cl)c1` [Compound I-38, 3-((2-chloro-4-((5-cyclopropyl-3-(2,6-dichlorophenyl)isoxazol-4-yl)methoxy)phenyl)ethynyl)-4-fluorobenzoic acid] are 60 to 200 nM, 92% and 1000 ng·h/mL.
On to `O=C(O)c1cc(C#Cc2ccc(OCc3c(-c4c(Cl)cccc4Cl)noc3C3CC3)cc2Cl)cc2[nH]ncc12` [Compound I-99, 6-((2-chloro-4-((5-cyclopropyl-3-(2,6-dichlorophenyl)isoxazol-4-yl)methoxy)phenyl)ethynyl)-1H-indazole-4-carboxylic acid], for which, at human FXR, the concentration for a half-maximal effect (EC50) fell in the range of 60 to 200 nM and the Emax was determined as 86%. For the same compound, the AUC in the data set “Mouse pharmacokinetics” (mouse, read-out: AUC) worked out at 205 ng·h/mL.
Regarding `Cc1cc(C#Cc2ccc(OCc3c(-c4c(Cl)cccc4Cl)noc3C3CC3)cc2Cl)cc(C(=O)O)c1` [Compound I-63, 3-((2-chloro-4-((5-cyclopropyl-3-(2,6-dichlorophenyl)isoxazol-4-yl)methoxy)phenyl)ethynyl)-5-methylbenzoic acid], at human FXR, the EC50 lay in the range of 60 to 200 nM and the maximal effect (Emax) was determined as 78%. The exposure (AUC) in the data set “Mouse pharmacokinetics” (mouse, read-out: AUC) is 11900 ng·h/mL.
`O=C(O)c1cncc(C#Cc2ccc(OCc3c(-c4c(Cl)cccc4Cl)noc3C3CC3)cc2Cl)c1` [Compound I-20, 5-((2-chloro-4-((5-cyclopropyl-3-(2,6-dichlorophenyl)isoxazol-4-yl)methoxy)phenyl)ethynyl)nicotinic acid]: on human FXR, the EC50 lay in the range of 60 to 200 nM and the Emax was determined as 94%. Also, in the data set “Mouse pharmacokinetics” (mouse, read-out: AUC), the AUC was found to be 438 ng·h/mL.
Regarding `O=C(O)c1cc(C#Cc2ccc(OCc3c(-c4c(Cl)cccc4Cl)noc3C3CC3)cc2Cl)c2cn[nH]c2c1` [Compound I-89, 4-((2-chloro-((5-cyclopropyl-3-(2,6-dichlorophenyl)isoxazol-4-yl)methoxy)phenyl)ethynyl)-1H-indazole-6-carboxylic acid], on human FXR, the EC50 fell in the range of 20 to 60 nM and the maximal effect (Emax) came out at 88%. The AUC in “Mouse pharmacokinetics” (mouse, read-out: AUC) worked out at 271 ng·h/mL.
The matching figures for `O=C(O)c1ccc(C#Cc2ccc(OCc3c(-c4c(Cl)cccc4Cl)noc3C3CC3)cc2Cl)cc1` [Compound I-16, 4-((2-chloro-4-((5-cyclopropyl-3-(2,6-dichlorophenyl)isoxazol-4-yl)methoxy)phenyl)ethynyl)benzoic acid]: 60 to 200 nM, 91% and 2250 ng·h/mL.
The matching figures for `O=C(O)c1cccc(C#Cc2ccc(OCc3c(-c4c(Cl)cccc4Cl)noc3C3CC3)cc2C(F)(F)F)c1` [Compound I-3, 3-((4-((5-cyclopropyl-3-(2,6-dichlorophenyl)isoxazol-4-yl)methoxy)-2-(trifluromethyl)phenyl)ethynyl)benzoic acid]: 200 to 1000 nM, over 100% and 760 ng·h/mL.
Consider `O=C(O)c1cc(F)cc(C#Cc2ccc(OCc3c(-c4c(Cl)cccc4Cl)noc3C3CC3)cc2Cl)c1` [Compound I-30, 3-((2-chloro-4-((5-cyclopropyl-3-(2,6-dichlorophenyl)isoxazol-4-yl)methoxy)phenyl)ethynyl)-5-fluorobenzoic acid], for which, at human FXR, the concentration for a half-maximal effect (EC50) was 20 to 60 nM and the Emax stood at 92%. Also, the exposure (AUC) in the data set “Mouse pharmacokinetics” (mouse, read-out: AUC) was 680 ng·h/mL.
The matching figures for `CN(C)c1cc(C#Cc2ccc(OCc3c(-c4c(Cl)cccc4Cl)noc3C3CC3)cc2Cl)cc(C(=O)O)c1` [Compound I-21, 3-((2-chloro-4-((5-cyclopropyl-3-(2,6-dichlorophenyl)isoxazol-4-yl)methoxy)phenyl)ethynyl)-5-(dimethylamino)benzoic acid]: at most 20 nM, 92% and 6140 ng·h/mL.
With `O=C(O)c1cc(C#Cc2ccc(OCc3c(-c4c(Cl)cccc4Cl)noc3C3CC3)cc2Cl)c2cc[nH]c2c1` [Compound I-91, 4-((2-chloro-4-((5-cyclopropyl-3-(2,6-dichlorophenyl)isoxazol-4-yl)methoxy)phenyl)ethynyl)-1H-indole-6-carboxylic acid], at human FXR, the EC50 was at most 20 nM and the maximal response (Emax) was over 100%. In “Mouse pharmacokinetics” (mouse, read-out: AUC), the AUC was 544 ng·h/mL.
Turning to `CC(C)c1onc(-c2c(Cl)cccc2Cl)c1COc1ccc(/C=C/c2cccc(C(=O)O)c2)c(Cl)c1` [WO2000037077 GW4064], in “Mouse pharmacokinetics”, the “AUC” value is 253.31 ng·h/mL. Moreover, in data set [4], the insulin sensitivity result was “improved insulin sensitivity” and the plasma glucose levels entry is recorded as “reduced plasma glucose levels”.
